Tests used:
[1] = tested on: Glomerella Lacenarium (Colletotrichum lacenarium); assay: Glomerella lagenarium (Colletotrichum lagenarium) liquid culture / cucumber / preventative (anthracnose); assay type: cell-based; details: 20 ppm in the applied formulation, liquid culture in PDB, 24° C., inhibition of growth measured photometrically 3 to 4 days after application, vs untreated control, read-out: disease control
Method: Mycelia fragments or conidia suspensions of a fungus prepared either freshly from liquid cultures of the fungus or from cryogenic storage, are directly mixed into nutrient broth. DMSO solutions of the test compound (max. 10 mg/ml) are diluted with 0.025% Tween20 by a factor of 50 and 10 μl of this solution is pipetted into a microtiter plate (96-well format). The nutrient broth containing the fungal spores/mycelia fragments is then added to give an end concentration of the tested compound. The test plates are incubated in the dark at 24° C. and 96% relative humidity. The inhibition of fungal growth is determined photometrically after 2 to 7 days, depending on the pathosystem, and percent antifungal activity relative to the untreated check is calculated.
Conidia of the fungus from cryogenic storage are directly mixed into nutrient broth (PDB—potato dextrose broth). After placing a (DMSO) solution of test compound into a microtiter plate (96-well format), the nutrient broth containing the fungal spores is added. The test plates are incubated at 24° C. and the inhibition of growth is measured photometrically 3 to 4 days after application.
The following compounds at 20 ppm in the applied formulation give at least 80% disease control in this test when compared to untreated control under the same conditions, which show extensive disease development.

[2] = tested on: Puccinia recondita f. Sp. Tritici; assay: Puccinia recondita f. sp. tritici / wheat / leaf disc preventative (brown rust); assay type: in vivo, Puccinia recondita f. sp. tritici on wheat cv. Kanzler; details: foliar, 200 ppm in the applied formulation, inoculated 1 day after application, assessed 7 to 9 days after application, vs untreated control leaf disks, read-out: disease control
Method: Leaf disks or leaf segments of various plant species are cut from plants grown in a greenhouse. The cut leaf disks or segments are placed in multiwell plates (24-well format) onto water agar. The leaf disks are sprayed with a test solution before (preventative) or after (curative) inoculation. Compounds to be tested are prepared as DMSO solutions (max. 10 mg/ml) which are diluted to the appropriate concentration with 0.025% Tween20 just before spraying. The inoculated leaf disks or segments are incubated under defined conditions (temperature, relative humidity, light, etc.) according to the respective test system. A single evaluation of disease level is carried out 3 to 14 days after inoculation, depending on the pathosystem. Percent disease control relative to the untreated check leaf disks or segments is then calculated. Wheat leaf segments cv. Kanzler were placed on agar in multiwell plates (24-well format) and sprayed with the formulated test compound diluted in water. The leaf disks were inoculated with a spore suspension of the fungus 1 day after application. The inoculated leaf segments were incubated at 19′C and 75% relative humidity (rh) under a light regime of 12 hours light/12 hours darkness in a climate cabinet and the activity of a compound was assessed as percent disease control compared to untreated when an appropriate level of disease damage appears in untreated check leaf segments (7 to 9 days after application). The following compounds at 200 ppm in the applied formulation give at least 80% disease control in this test when compared to untreated control leaf disks under the same conditions, which show extensive disease development.

Phakopsora pachyrhizi = Phakopsora pachyrhizi / soybean / leaf disc preventative (Asian soybean rust); assay type: in vivo, Phakopsora pachyrhizi on soybean; details: foliar, 200 ppm in the applied formulation, inoculated one day after application, assessed 12 to 14 days after application, vs untreated control leaf disks, read-out: disease control
Method: (§1) Leaf disks or leaf segments of various plant species are cut from plants grown in a greenhouse. The cut leaf disks or segments are placed in multiwell plates (24-well format) onto water agar. The leaf disks are sprayed with a test solution before (preventative) or after (curative) inoculation. Compounds to be tested are prepared as DMSO solutions (max. 10 mg/ml) which are diluted to the appropriate concentration with 0.025% Tween20 just before spraying. The inoculated leaf disks or segments are incubated under defined conditions (temperature, relative humidity, light, etc.) according to the respective test system. A single evaluation of disease level is carried out 3 to 14 days after inoculation, depending on the pathosystem. Percent disease control relative to the untreated check leaf disks or segments is then calculated.
Soybean leaf disks are placed on water agar in multiwell plates (24-well format) and sprayed with the formulated test compound diluted in water. One day after application leaf discs are inoculated by spraying a spore suspension on the lower leaf surface. After an incubation period in a climate cabinet of 24-36 hours in darkness at 20° C. and 75% rh leaf disc are kept at 20° C. with 12 h light/day and 75% rh. The activity of a compound is assessed as percent disease control compared to untreated when an appropriate level of disease damage appears in untreated check leaf disks (12 to 14 days after application).
(§2) The following compounds at 200 ppm in the applied formulation give at least 80% disease control in this test when compared to untreated control leaf disks under the same conditions, which show extensive disease development.

[3] = tested on: Puccinia recondita f. Sp. Triticil; assay: Puccinia recondita f. sp. tritici / wheat / leaf disc curative (brown rust); assay type: in vivo, Puccinia recondita f. sp. tritici on wheat cv. Kanzler; details: foliar, 200 ppm in the applied formulation, applied 1 day after inoculation, assessed 6 to 8 days after application, vs untreated control leaf disks, read-out: disease control
Method: as §1
Wheat leaf segments cv. Kanzler are placed on agar in multiwell plates (24-well format). The leaf segments are then inoculated with a spore suspension of the fungus. Plates were stored in darkness at 19° C. and 75% relative humidity. The formulated test compound diluted in water was applied 1 day after inoculation. The leaf segments were incubated at 19° C. and 75% relative humidity under a light regime of 12 hours light/12 hours darkness in a climate cabinet and the activity of a compound was assessed as percent disease control compared to untreated when an appropriate level of disease damage appears in untreated check leaf segments (6 to 8 days after application).
as §2

O=C(NCc1ccc(-c2noc(C(F)(F)F)n2)c(F)c1F)C1CCC1 [Compound 1.75, N-[[2,3-difluoro-4-[5-(trifluoromethyl)-1,2,4-oxadiazol-3-yl]phenyl]methyl] cyclobutanecarboxamide]
≥ 80%: inhibition of growth at 20 ppm [1] | pest or weed control at 200 ppm [2] | pest or weed control at 200 ppm (Phakopsora pachyrhizi) | pest or weed control at 200 ppm [3]

CC1(C(=O)NCc2ccc(-c3noc(C(F)(F)F)n3)c(F)c2)COC1 [Compound 1.69, N-[[3-fluoro-4-[5-(trifluoromethyl)-1,2,4-oxadiazol-3-yl]phenyl]methyl]-3-methyl-oxetane-3-carboxamide]
≥ 80%: inhibition of growth at 20 ppm [1] | pest or weed control at 200 ppm [2] | pest or weed control at 200 ppm (Phakopsora pachyrhizi) | pest or weed control at 200 ppm [3]

CC1(C(=O)NCc2ccc(-c3noc(C(F)(F)F)n3)cc2F)CC1 [Compound 1.67, N-[[2-fluoro-4-[5-(trifluoromethyl)-1,2,4-oxadiazol-3-yl]phenyl]methyl]-1-methyl-cyclopropanecarboxamide]
≥ 80%: inhibition of growth at 20 ppm [1] | pest or weed control at 200 ppm [2] | pest or weed control at 200 ppm (Phakopsora pachyrhizi) | pest or weed control at 200 ppm [3]

O=C(NCc1ccc(-c2noc(C(F)(F)F)n2)cc1)C1CCC1 [Compound 1.22, N-[[4-[5-(trifluoromethyl)-1,2,4-oxadiazol-3-yl]phenyl]methyl] cyclobutanecarboxamide]
≥ 80%: inhibition of growth at 20 ppm [1] | pest or weed control at 200 ppm [2] | pest or weed control at 200 ppm (Phakopsora pachyrhizi) | pest or weed control at 200 ppm [3]

O=C(NCc1ccc(-c2noc(C(F)(F)F)n2)cc1F)C1CC1(F)F (centres unmarked) [Compound 1.61, 2,2-difluoro-N-[[2-fluoro-4-[5-(trifluoromethyl)-1,2,4-oxadiazol-3-yl]phenyl]methyl] cyclopropanecarboxamide]
≥ 80%: inhibition of growth at 20 ppm [1] | pest or weed control at 200 ppm [2] | pest or weed control at 200 ppm (Phakopsora pachyrhizi) | pest or weed control at 200 ppm [3]

O=C(NCc1ccc(-c2noc(C(F)(F)F)n2)c(F)c1)C1CCC1 [Compound 1.93, N-[[3-fluoro-4-[5-(trifluoromethyl)-1,2,4-oxadiazol-3-yl]phenyl]methyl] cyclobutanecarboxamide]
≥ 80%: inhibition of growth at 20 ppm [1] | pest or weed control at 200 ppm [2] | pest or weed control at 200 ppm (Phakopsora pachyrhizi) | pest or weed control at 200 ppm [3]

O=C(CC1CC1)NCc1ccc(-c2noc(C(F)(F)F)n2)c(F)c1 [Compound 1.92, 2-cyclopropyl-N-[[3-fluoro-4-[5-(trifluoromethyl)-1,2,4-oxadiazol-3-yl]phenyl]methyl]acetamide]
≥ 80%: inhibition of growth at 20 ppm [1] | pest or weed control at 200 ppm [2] | pest or weed control at 200 ppm (Phakopsora pachyrhizi) | pest or weed control at 200 ppm [3]

O=C(NCc1ccc(-c2noc(C(F)(F)F)n2)cc1F)C1CCCO1 (centres unmarked) [Compound 1.49, N-[[2-fluoro-4-[5-(trifluoromethyl)-1,2,4-oxadiazol-3-yl]phenyl]methyl]tetrahydrofuran-2-carboxamide]
≥ 80%: inhibition of growth at 20 ppm [1] | pest or weed control at 200 ppm [2] | pest or weed control at 200 ppm (Phakopsora pachyrhizi) | pest or weed control at 200 ppm [3]

CC1CC1C(=O)NCCc1ccc(-c2noc(C(F)(F)F)n2)cc1 (centres unmarked) [Compound 1.102, 2-methyl-N-[2-[4-[5-(trifluoromethyl)-1,2,4-oxadiazol-3-yl]phenyl]ethyl] cyclopropanecarboxamide]
≥ 80%: inhibition of growth at 20 ppm [1] | pest or weed control at 200 ppm [2] | pest or weed control at 200 ppm (Phakopsora pachyrhizi) | pest or weed control at 200 ppm [3]

O=C(CC1CC1)NCc1ccc(-c2noc(C(F)(F)F)n2)cc1 [Compound 1.53, 2-cyclopropyl-N-[[4-[5-(trifluoromethyl)-1,2,4-oxadiazol-3-yl]phenyl]methyl]acetamide]
≥ 80%: inhibition of growth at 20 ppm [1] | pest or weed control at 200 ppm [2] | pest or weed control at 200 ppm (Phakopsora pachyrhizi) | pest or weed control at 200 ppm [3]

CC1(C(=O)NCCc2ccc(-c3noc(C(F)(F)F)n3)cc2)COC1 [Compound 1.104, 3-methyl-N-[2-[4-[5-(trifluoromethyl)-1,2,4-oxadiazol-3-yl]phenyl]ethyl]oxetane-3-carboxamide]
≥ 80%: inhibition of growth at 20 ppm [1] | pest or weed control at 200 ppm [2] | pest or weed control at 200 ppm (Phakopsora pachyrhizi) | pest or weed control at 200 ppm [3]

O=C(NCc1ccc(-c2noc(C(F)(F)F)n2)c(F)c1)C1CC1(F)F (centres unmarked) [Compound 1.91, 2,2-difluoro-N-[[3-fluoro-4-[5-(trifluoromethyl)-1,2,4-oxadiazol-3-yl]phenyl]methyl] cyclopropanecarboxamide]
≥ 80%: inhibition of growth at 20 ppm [1] | pest or weed control at 200 ppm [2] | pest or weed control at 200 ppm (Phakopsora pachyrhizi) | pest or weed control at 200 ppm [3]

CC1(C(=O)NCc2ccc(-c3noc(C(F)(F)F)n3)cc2)CCCCC1 [Compound 1.21, 1-methyl-N-[[4-[5-(trifluoromethyl)-1,2,4-oxadiazol-3-yl]phenyl]methyl] cyclohexanecarboxamide]
≥ 80%: inhibition of growth at 20 ppm [1] | pest or weed control at 200 ppm [2] | pest or weed control at 200 ppm (Phakopsora pachyrhizi) | pest or weed control at 200 ppm [3]

O=C(NCCc1ccc(-c2noc(C(F)(F)F)n2)cc1)C1CCC1 [Compound 1.101, N-[2-[4-[5-(trifluoromethyl)-1,2,4-oxadiazol-3-yl]phenyl]ethyl] cyclobutanecarboxamide]
≥ 80%: inhibition of growth at 20 ppm [1] | pest or weed control at 200 ppm [2] | pest or weed control at 200 ppm (Phakopsora pachyrhizi) | pest or weed control at 200 ppm [3]

CC1CC1C(=O)NCc1ccc(-c2noc(C(F)(F)F)n2)c(F)c1 (centres unmarked) [Compound 1.64, N-[[3-fluoro-4-[5-(trifluoromethyl)-1,2,4-oxadiazol-3-yl]phenyl]methyl]-2-methyl-cyclopropanecarboxamide]
≥ 80%: inhibition of growth at 20 ppm [1] | pest or weed control at 200 ppm [2] | pest or weed control at 200 ppm (Phakopsora pachyrhizi) | pest or weed control at 200 ppm [3]

O=C(CC1CC1)NCc1ccc(-c2noc(C(F)(F)F)n2)cc1F [Compound 1.62, 2-cyclopropyl-N-[[2-fluoro-4-[5-(trifluoromethyl)-1,2,4-oxadiazol-3-yl]phenyl]methyl] acetamide]
≥ 80%: inhibition of growth at 20 ppm [1] | pest or weed control at 200 ppm [2] | pest or weed control at 200 ppm (Phakopsora pachyrhizi) | pest or weed control at 200 ppm [3]

O=C(CC1CC1)NCc1ccc(-c2noc(C(F)(F)F)n2)c(F)c1F [Compound 1.73, 2-cyclopropyl-N-[[2,3-difluoro-4-[5-(trifluoromethyl)-1,2,4-oxadiazol-3-yl]phenyl]methyl]acetamide]
≥ 80%: inhibition of growth at 20 ppm [1] | pest or weed control at 200 ppm [2] | pest or weed control at 200 ppm (Phakopsora pachyrhizi) | pest or weed control at 200 ppm [3]

— patent US20180368410A1, “MICROBIOCIDAL OXADIAZOLE DERIVATIVES” (SYNGENTA PARTICIPATIONS AG, priority 2015, published 2018)
